Laboratory results as given in patent US7902181B2, “Compounds 010” (AstraZeneca AB, priority 2007, dated 2011).
Counter-ions that a name gives are not always drawn.

These molecules were tested against Recombinant Human (rh) DPP1 (Homo sapiens, UniProt P53634) (assay: Fluorescence Assay for Recombinant Human (rh) DPP1). Details: rhDPP1; substrate H-Gly-Arg-AMC; pH5.0; 30 min pre-incubation, 60 min reaction at 22° C.; highest concentration 10 μM; read-out: DPP1 activity, pIC50 (converted).
Type: biochemical
Method: Fluorescence Assay for Recombinant Human (rh) DPP1
The activity of DPP1 was determined by measuring the enzymatic release of aminomethyl coumarin (AMC) from the peptide substrate (H-Gly-Arg-AMC), which leads to an increase in fluorescence intensity at λex=350 nm and λem=450 nm. The assay was carried out in black 384 well plates in a final volume of 50 μl at 22° C. The assay conditions contained the following: 25 mM piperazine buffer pH5.0; 50 mM NaCl, 5 mM DTT; 0.01% (v/v) Triton X-100; 100 μM H-Gly-Arg-AMC and rhDPP1 ([…]). Potential inhibitors were made up in DMSO and then diluted in the assay to give a final concentration of 1% (v/v) DMSO. A 12-point half-log dilution of the inhibitors (highest concentration 10 μM) was tested and the pIC50 determined using a 4-parameter logistic equation in a non-linear curve fitting routine. A standard DPP1 inhibitor (vinyl sulfone, see below) was used as a positive control in the assay. Routinely, inhibitors were pre-incubated with rhDPP1 for 30 min prior to the addition of the peptide substrate to start the reaction for a further 60 min at 22° C. After that the plates were immediately read in a fluorescence plate reader using the above emission and excitation wavelengths [modified from Kam, C M, Gotz, M G, Koot, G, McGuire, M J, Thiele, D L, Hudig, D & Powers, J C (2004). Arch Biochem Biophys, 427, 123-134 & McGuire, M J, Lipsky, P E & Thiele, D L (1992). Arch Biochem Biophys, 295, 280-288].

Sequence of Recombinant Human (rh) DPP1 (P53634 25-463): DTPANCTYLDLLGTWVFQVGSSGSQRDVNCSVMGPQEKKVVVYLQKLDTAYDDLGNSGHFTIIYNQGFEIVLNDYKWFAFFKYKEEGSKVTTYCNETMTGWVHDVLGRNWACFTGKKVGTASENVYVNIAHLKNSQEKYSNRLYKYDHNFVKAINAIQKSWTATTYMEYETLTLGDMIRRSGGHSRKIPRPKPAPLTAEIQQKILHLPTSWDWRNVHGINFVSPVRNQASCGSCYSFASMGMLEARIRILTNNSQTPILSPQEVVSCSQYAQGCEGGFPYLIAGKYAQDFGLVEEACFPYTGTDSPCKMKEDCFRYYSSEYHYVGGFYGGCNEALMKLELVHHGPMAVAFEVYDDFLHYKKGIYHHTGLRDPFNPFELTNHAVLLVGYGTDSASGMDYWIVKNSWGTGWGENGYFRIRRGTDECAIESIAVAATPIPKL

IC50 | SMILES
31.6 nM | N#Cc1ccc(-c2ccc(C[C@@H](C#N)NC(=O)[C@@H]3CCCCN3)cc2)cn1 [Example 53, (S)-N-((S)-1-Cyano-2-(4-(6-cyanopyridin-3-yl)phenyl)ethyl)piperidine-2-carboxamide]
10 nM | N#Cc1ccc(-c2ccc(C[C@@H](C#N)NC(=O)[C@@H]3CCCCN3)cc2)cc1F [Example 56, (S)-N-((S)-1-Cyano-2-(4′-cyano-3′-fluorobiphenyl-4-yl)ethyl)piperidine-2-carboxamide]
3.16 nM | CSc1cc(-c2ccc(C[C@@H](C#N)NC(=O)[C@@H]3CCCCN3)cc2)ccc1C#N [Example 57, (S)-N-((S)-1-Cyano-2-(4′-cyano-3′-(methylthio)biphenyl-4-yl)ethyl)-piperidine-2-carboxamide]
15.8 nM | CS(=O)(=O)c1cc(-c2ccc(C[C@@H](C#N)NC(=O)[C@@H]3CCCCN3)cc2)ccc1C#N [Example 58, (S)-N-((S)-1-Cyano-2-(4′-cyano-3′-(methylsulfonyl)biphenyl-4-yl)ethyl)piperidine-2-carboxamide]
15.8 nM | CCS(=O)(=O)c1cc(-c2ccc(C[C@@H](C#N)NC(=O)[C@@H]3CCCCN3)cc2)ccc1C#N [Example 59, (S)-N-((S)-1-Cyano-2-(4′-cyano-3′-(ethylsulfonyl)biphenyl-4-yl)ethyl)piperidine-2-carboxamide]
20 nM | CCCS(=O)(=O)c1cc(-c2ccc(C[C@@H](C#N)NC(=O)[C@@H]3CCCCN3)cc2)ccc1C#N [Example 60, (S)-N-((S)-1-Cyano-2-(4′-cyano-3′-(propylsulfonyl)biphenyl-4-yl)ethyl)piperidine-2-carboxamide]
15.8 nM | Cc1nccn1-c1cc(-c2ccc(C[C@@H](C#N)NC(=O)[C@@H]3CCCCN3)cc2)ccc1C#N [Example 62, (2S)-N-((1S)-1-Cyano-2-(4′-cyano-3′-(2-methyl-1H-imidazol-1-yl)biphenyl-4-yl)ethyl)piperidine-2-carboxamide]
7.94 nM | CSc1ccc(-c2ccc(C[C@@H](C#N)NC(=O)[C@@H]3CCCCN3)cc2)cc1C#N [Example 63, (S)-N-((S)-1-cyano-2-(3′-cyano-4′-(methylthio)biphenyl-4-yl)ethyl)piperidine-2-carboxamide]
10 nM | CS(=O)(=O)c1ccc(-c2ccc(C[C@@H](C#N)NC(=O)[C@@H]3CCCCN3)cc2)cc1C#N [Example 64, (S)-N-((S)-1-Cyano-2-(3′-cyano-4′-(methylsulfonyl)biphenyl-4-yl)ethyl)piperidine-2-carboxamide]
10 nM | N#C[C@H](Cc1ccc(-c2ccc3c(c2)CNS3(=O)=O)cc1)NC(=O)[C@@H]1CCCCN1 [Example 67, (2S)-N-{(1S)-1-cyano-2-[4-(1,1-dioxido-2,3-dihydro-1,2-benzisothiazol-5-yl)phenyl]ethyl} piperidine-2-carboxamide]

The remaining lines, values behind:

SMILES | IC50
N#C[C@H](Cc1ccc(-c2cccc(CO)c2)cc1)NC(=O)[C@@H]1CCCCN1 [Example 45, (2S)-N-[(1S)-1-Cyano-2-[4-[3-(hydroxymethyl)phenyl]phenyl]ethyl]piperidine-2-carboxamide trifluoroacetate] | 794 nM
COc1ncc(-c2ccc(C[C@@H](C#N)NC(=O)[C@@H]3CCCCN3)cc2)cn1 [Example 46, (2S)-N-[(1S)-1-Cyano-2-[4-(2-methoxypyrimidin-5-yl)phenyl]ethyl]piperidine-2-carboxamide trifluoroacetate] | 1260 nM
CN1CCN(c2ccc(-c3ccc(C[C@@H](C#N)NC(=O)[C@@H]4CCCCN4)cc3)cn2)CC1 [Example 47, (2S)-N-[(1S)-1-Cyano-2-[4-[6-(4-methylpiperazin-1-yl)pyridin-3-yl]phenyl]ethyl]piperidine-2-carboxamide trifluoroacetate] | 1260 nM
N#C[C@H](Cc1ccc(-c2ccccc2O)cc1)NC(=O)[C@@H]1CCCCN1 [Example 48, (2S)-N-[(1S)-1-Cyano-2-[4-(2-hydroxyphenyl)phenyl]ethyl]piperidine-2-carboxamide trifluoroacetate] | 1580 nM
N#C[C@H](Cc1ccc(-c2cccc3cccnc23)cc1)NC(=O)[C@@H]1CCCCN1 [Example 49, (2S)-N-[(1S)-1-Cyano-2-(4-quinolin-8-ylphenyl)phenyl]piperidine-2-carboxamide trifluoroacetate] | 2000 nM
Cc1ccccc1-c1ccc(C[C@@H](C#N)NC(=O)[C@@H]2CCCCN2)cc1 [Example 50, (2S)-N-[(1S)-1-Cyano-2-[4-(2-methylphenyl)phenyl]eth-yl]piperidine-2-carboxamide trifluoroacetate] | 2000 nM
N#C[C@H](Cc1ccc(-c2ccccc2OCc2ccccc2)cc1)NC(=O)[C@@H]1CCCCN1 [Example 51, (2S)-N-[(1S)-1-Cyano-2-[4-(2-phenylmethoxyphenyl)phenyl]ethyl]piperidine-2-carboxamide trifluoroacetate] | 2000 nM
Cc1ncccc1-c1ccc(C[C@@H](C#N)NC(=O)[C@@H]2CCCCN2)cc1 [Example 52, (2S)-N-[(1S)-1-Cyano-2-[4-(2-methylpyridin-3-yl)phenyl]ethyl]piperidine-2-carboxamide trifluoroacetate] | 3160 nM
N#C[C@H](Cc1ccc(-c2ccc3sc(=O)n(CCO)c3c2)cc1)NC(=O)[C@@H]1CCCCN1 [Example 54, (S)-N-((S)-1-Cyano-2-(4-(3-(2-hydroxyethyl)-2-oxo-2,3-dihydrobenzo[d]thiazol-5-yl)phenyl)ethyl)piperidine-2-carboxamide] | 5.01 nM
COCCn1c(=O)sc2ccc(-c3ccc(C[C@@H](C#N)NC(=O)[C@@H]4CCCCN4)cc3)cc21 [Example 55, (S)-N-((S)-1-cyano-2-(4-(3-(2-methoxyethyl)-2-oxo-2,3-dihydrobenzo[d]thiazol-5-yl)phenyl)ethyl)piperidine-2-carboxamide] | 5.01 nM
C[S+]([O-])c1cc(-c2ccc(C[C@@H](C#N)NC(=O)[C@@H]3CCCCN3)cc2)ccc1C(N)=O (stereo partly drawn) [Example 61, (2S)-N-((1S)-2-(4′-Carbamoyl-3′-(methylsulfinyl)biphenyl-4-yl)-1-cyanoethyl)piperidine-2-carboxamide] | 39.8 nM
Cn1c(=O)sc2ccc(-c3ccc(C[C@@H](C#N)NC(=O)[C@@H]4CCCCN4)cc3)cc21 [Example 66, (S)-N-((S)-1-Cyano-2-(4-(3-methyl-2-oxo-2,3-dihydrobenzo[d]thiazol-5-yl)phenyl)ethyl) piperidine-2-carboxamide] | 2 nM
N#C[C@H](Cc1ccc(-c2ccc3c(c2)SCC(=O)N3)cc1)NC(=O)[C@@H]1CCCCN1 [Example 68, (S)-N-((S)-1-Cyano-2-(4-(3-oxo-3,4-dihydro-2H-benzo[b][1,4]thia-zin-7-yl)phenyl)ethyl) piperidine-2-carboxamide] | 15.8 nM
CN1Cc2cc(-c3ccc(C[C@@H](C#N)NC(=O)[C@@H]4CCCCN4)cc3)ccc2S1(=O)=O [Example 69] | 12.6 nM
CCc1ccc(-c2ccc(C[C@@H](C#N)NC(=O)[C@@H]3CCCCN3)cc2)cc1 [Example 70, (S)-N-((S)-1-Cyano-2-(4′-ethylbiphenyl-4-yl)ethyl)piperidine-2-carboxamide Trifluoroacetate] | 20 nM
CNS(=O)(=O)c1ccc(-c2ccc(C[C@@H](C#N)NC(=O)[C@@H]3CCCCN3)cc2)cc1 [Example 71, (S)-N-((S)-1-Cyano-2-(4′-(N-methylsulfamoyl)biphenyl-4-yl)ethyl)piperidine-2-carboxamide Trifluoroacetate] | 6.31 nM
